The text below walks through data of ChEMBL document CHEMBL4765353, “Antitubercular polyhalogenated phenothiazines and phenoselenazine with reduced binding to CNS receptors” (Eur J Med Chem, 2020).

For data set [1], the system named is Mycobacterium tuberculosis. The data set is classed as functional. To be noted: 504 h, time 3 weeks, read-out: MIC100.
In another data set the test system is Vero. The data set is described as follows: Cytotoxicity against African green monkey Vero cells assessed as decrease in cell viability incubated for 72 hrs by resazurin assay. The data set is classed as cell-based. To be noted: Chlorocebus sabaeus. (Alamar Blue is a resazurin reagent that responds to reducing activity.)
The subject of data set [2] is Mycolicibacterium smegmatis. Nature of the data set: Inhibition of NDH-2 in wild type Mycobacterium smegmatis mc24517 inverted membrane vesicles assessed as reduction in oxygen consumption at 50 uM by NADH oxygen consumption assay. The data set is classed as cell membranes. To be noted: Membrane vesicle.
The test system of data set [3] is Mycobacterium tuberculosis H37Rv. The data set is described as follows: Inhibition of NDH-2 in Mycobacterium tuberculosis H37Rv inverted membrane vesicles over expressing ndh gene assessed as reduction in oxygen consumption at 50 uM by NADH oxygen consumption assay. The data set is classed as cell membranes. To be noted: Membrane vesicle.
In the next data set the target is D(2) dopamine receptor (Homo sapiens, UniProt P14416). The data set is described as follows: Displacement of [3H]-Raclopride from human D2 receptor (unknown origin) expressed in HEK293 cell membranes. The arrangement: species or system Cell membrane. On the technique in general: In a radioligand displacement assay an active substance lowers the binding of a labelled ligand.
Chain of D(2) dopamine receptor (P14416 whole entry): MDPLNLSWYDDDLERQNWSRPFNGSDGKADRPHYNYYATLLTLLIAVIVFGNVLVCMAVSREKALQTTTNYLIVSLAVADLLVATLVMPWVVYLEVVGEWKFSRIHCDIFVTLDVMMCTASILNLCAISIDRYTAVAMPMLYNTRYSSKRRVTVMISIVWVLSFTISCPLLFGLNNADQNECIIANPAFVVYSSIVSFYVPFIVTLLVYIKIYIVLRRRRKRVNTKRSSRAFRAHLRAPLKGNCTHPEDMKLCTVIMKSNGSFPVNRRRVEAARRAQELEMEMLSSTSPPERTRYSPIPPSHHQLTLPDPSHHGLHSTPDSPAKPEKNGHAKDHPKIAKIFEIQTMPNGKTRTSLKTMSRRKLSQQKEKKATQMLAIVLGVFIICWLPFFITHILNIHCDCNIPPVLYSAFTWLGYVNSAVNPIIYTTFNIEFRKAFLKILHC

For data set [4], the target named is 5-hydroxytryptamine receptor 2A (Homo sapiens, UniProt P28223). Nature of the data set: Displacement of [3H]-Ketanserin from human 5HT2A receptor expressed in CHO-K1 cells. The data set is classed as ADME, cell-based.
Chain of 5-hydroxytryptamine receptor 2A (P28223 whole entry): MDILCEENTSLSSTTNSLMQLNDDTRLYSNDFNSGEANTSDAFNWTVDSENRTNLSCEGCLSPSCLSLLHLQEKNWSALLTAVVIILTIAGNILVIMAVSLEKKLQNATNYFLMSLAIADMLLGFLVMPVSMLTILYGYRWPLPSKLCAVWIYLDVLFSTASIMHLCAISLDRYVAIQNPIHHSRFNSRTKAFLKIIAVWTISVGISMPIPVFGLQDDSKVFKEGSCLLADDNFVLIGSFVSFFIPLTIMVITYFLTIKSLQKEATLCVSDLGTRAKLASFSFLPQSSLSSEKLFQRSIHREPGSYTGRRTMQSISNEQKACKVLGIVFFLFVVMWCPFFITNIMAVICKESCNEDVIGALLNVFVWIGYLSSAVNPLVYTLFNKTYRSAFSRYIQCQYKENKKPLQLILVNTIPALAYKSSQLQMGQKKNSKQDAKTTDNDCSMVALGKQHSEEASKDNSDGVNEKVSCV
In data set [5] the target is 5-hydroxytryptamine receptor 6 (Homo sapiens, UniProt P50406). Nature of the data set: Displacement of [3H]-LSD from human 5HT6 receptor expressed in HEK293 cells. The data set is classed as cell-based.
Chain of 5-hydroxytryptamine receptor 6 (P50406 whole entry): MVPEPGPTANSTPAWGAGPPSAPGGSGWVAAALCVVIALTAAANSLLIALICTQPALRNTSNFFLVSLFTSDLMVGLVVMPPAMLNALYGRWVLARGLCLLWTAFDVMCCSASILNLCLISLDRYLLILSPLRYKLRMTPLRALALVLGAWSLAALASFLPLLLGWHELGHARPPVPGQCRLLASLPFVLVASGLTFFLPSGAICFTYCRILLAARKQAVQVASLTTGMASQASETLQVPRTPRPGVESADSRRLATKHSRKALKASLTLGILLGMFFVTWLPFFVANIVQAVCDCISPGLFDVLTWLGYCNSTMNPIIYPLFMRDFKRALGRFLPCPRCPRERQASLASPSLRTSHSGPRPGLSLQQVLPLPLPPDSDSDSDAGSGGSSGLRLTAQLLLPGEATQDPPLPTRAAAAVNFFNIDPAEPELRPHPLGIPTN
Data set [6] deals with 5-hydroxytryptamine receptor 7 (Homo sapiens, UniProt P34969). Nature of the data set: Displacement of [3H]-5-CT from human 5HT7 receptor expressed in HEK293 cells. The data set is classed as cell-based.
Chain of 5-hydroxytryptamine receptor 7 (P34969 whole entry): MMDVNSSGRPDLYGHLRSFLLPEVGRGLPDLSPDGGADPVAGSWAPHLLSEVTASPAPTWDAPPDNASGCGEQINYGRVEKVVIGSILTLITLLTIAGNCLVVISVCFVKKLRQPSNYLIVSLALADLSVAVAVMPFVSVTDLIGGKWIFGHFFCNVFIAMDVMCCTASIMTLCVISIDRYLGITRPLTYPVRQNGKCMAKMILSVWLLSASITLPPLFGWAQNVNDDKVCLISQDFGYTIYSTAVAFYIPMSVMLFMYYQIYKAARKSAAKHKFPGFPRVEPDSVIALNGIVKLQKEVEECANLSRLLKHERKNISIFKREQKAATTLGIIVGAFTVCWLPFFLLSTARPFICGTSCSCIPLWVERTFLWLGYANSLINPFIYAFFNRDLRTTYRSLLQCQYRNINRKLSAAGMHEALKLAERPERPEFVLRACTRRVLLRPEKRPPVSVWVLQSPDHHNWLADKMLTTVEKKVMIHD
Data set [7] concerns HepG2. The data set is described as follows: Hepatotoxicity in human HepG2 cells at 10 uM incubated for 48 hrs by MTS assay. The data set is classed as toxicity, cell-based. Conditions: hepg2, 48 h. (In general: Formazan colour is commonly taken as a measure of viable cells.)
Data set [8] is described as follows: Metabolic stability in human liver microsomes by LC-MS/MS analysis. The data set is classed as ADME, Microsome.
Data set [9] concerns Mycobacterium tuberculosis. Nature of the data set: Antitubercular activity against Mycobacterium tuberculosis H37Rv incubated for 7 days by Microplate Alamar Blue Assay. The data set is classed as functional. To be noted: 168 h, time 7 day.
The test system of data set [10] is Mycobacterium tuberculosis. The data set is classed as functional. To be noted: H37Rv, 240 h, time 10 day.
The nature of data set [11]: Inhibition of NDH-2 in wild type Mycobacterium smegmatis mc24517 inverted membrane vesicles by NADH oxygen consumption assay. The data set is classed as cell membranes, Mycolicibacterium smegmatis, Membrane vesicle.
The nature of data set [12]: Inhibition of NDH-2 in Mycobacterium tuberculosis H37Rv inverted membrane vesicles over expressing ndh gene by NADH oxygen consumption assay. The data set is classed as cell membranes, Membrane vesicle.
The subject of data set [13] is Mycobacterium tuberculosis. The data set is described as follows: Antitubercular activity against Mycobacterium tuberculosis H37Rv incubated for 4 days by Microplate Alamar Blue Assay. The data set is classed as functional. To be noted: 96 h, time 4 day.
Data set [14] concerns HepG2. The data set is described as follows: Hepatotoxicity in human HepG2 cells at 50 uM incubated for 48 hrs by MTS assay. The data set is classed as toxicity, cell-based. To be noted: hepg2, 48 h.

SMILES strings stand for the structures. Converted amounts (≈) assume the structure as drawn.

With `CN(C)CCCN1c2ccc(Br)cc2Sc2cc(Br)ccc21.Cl`, the MIC in [1] is 2.38 µg/mL. Further, in the data set with Vero, the IC50 was found to be 27 µg/mL. Also, the inhibition is 69.4% in data set [2] and 40.7% in data set [3].

As for `CN1CCCCC1CCN1c2ccc(Br)cc2[Se]c2cc(Br)ccc21.Cl` (stereo not drawn), the MIC in data set [1] is 2.35 µg/mL. Moreover, the IC50 in the data set with Vero turned out to be 17.6 µg/mL. The Ki at D(2) dopamine receptor came out at 367 nM; in [4], 1760 nM; in data set [5], 222 nM; in [6] it was 2340 nM. For the same molecule, the Activity result with HepG2 [7] is recorded as “Non-Toxic”. Further, in data set [8], the Stabilty entry is on record as “Stable”.

As to `CC(=O)NC[C@H]1CN(c2ccc(N3CCOCC3)c(F)c2)C(=O)O1` [LINEZOLID], in [1], the MIC came to 0.87 µg/mL (≈ 2.58 µM).

Regarding `CCCCCCCc1cc(O)c2ccccc2[n+]1[O-]`, the inhibition in data set [2] turned out to be 18.1%; in data set [3] it was 29.2%.

As to `CN(C)CCCN1c2ccc(Cl)cc2Sc2cc(Cl)cc(Cl)c21.Cl`, the MIC in data set [1] worked out at 4.46 µg/mL. Also, the IC50 in the data set with Vero came to 16.8 µg/mL.

With `Brc1ccc2c(c1)Sc1cc(Br)ccc1N2CCCN1CCOCC1.Cl`, in data set [1], the MIC is 5.52 µg/mL. Moreover, the IC50 with Vero is over 50 µg/mL.

With `Brc1ccc2c(c1)Sc1cc(Br)ccc1N2CCN1CCCC1`, in data set [1], the MIC turned out to be 2.57 µg/mL (≈ 5.66 µM). Further, in the data set with Vero, the IC50 came to 9.42 µg/mL (≈ 20.7 µM).

Regarding `CN1CCCCC1CCN1c2ccc(Br)cc2Sc2cc(Br)ccc21.Cl` (stereo not drawn), the MIC90 in data set [9] was determined as 3.1 µg/mL; in data set [10], 2.96 µg/mL; in [13], 3.1 µg/mL. For the same molecule, the MIC in data set [1] came out at 1.5 µg/mL. Besides, the IC50 worked out at 18.3 µg/mL with Vero, 4.7 µg/mL in data set [11] and 11.2 µg/mL in data set [12]. Further, the inhibition came to 93.7% in data set [2] and 84.8% in [3]. Also, the Ki on D(2) dopamine receptor was found to be 688 nM; in data set [4], 1750 nM; in data set [5], 758 nM; in [6], 2150 nM. Moreover, the Activity result in the data set with HepG2 [7] was “Toxic”. For the same molecule, the Stabilty entry in data set [8] was “Unstable”.

As for `Cl.Clc1cc(Cl)c2c(c1)Sc1cc(Cl)cc(Cl)c1N2CCCN1CCCC1`, the MIC in data set [1] worked out at 1.5 µg/mL. Further, in the data set on Vero, the IC50 is 18 µg/mL.

Turning to `CN1CCCCC1CCN1c2ccc(Cl)cc2Sc2cc(Cl)cc(Cl)c21.Cl` (stereo not drawn), in data set [1], the MIC was found to be 2.67 µg/mL. Further, in the data set on Vero, the half-maximal inhibitory concentration (IC50) amounted to 19.2 µg/mL.

Turning to `NNC(=O)c1ccncc1` [ISONIAZID], the MIC90 in data set [10] was determined as 2.46 µg/mL (≈ 17.9 µM). The MIC in data set [1] stood at 0.25 µg/mL (≈ 1.82 µM).

With `Cl.Clc1cc(Cl)c2c(c1)Sc1cc(Cl)cc(Cl)c1N2CCCN1CCOCC1`, the MIC in data set [1] is over 50 µg/mL.

On to `CN1CCCCC1CCN1c2ccc(Br)cc2Sc2cc(Br)cc(F)c21.Cl` (stereo not drawn), for which the MIC in data set [1] is 2.65 µg/mL. Further, the IC50 in the data set with Vero came to 17.7 µg/mL.

`CN(C)CCCN1c2ccccc2Sc2ccc(Cl)cc21` [CHLORPROMAZINE] came in with an MIC90 in data set [10] of 0.08 µg/mL (≈ 0.251 µM). In data set [1], the MIC came to 4.41 µg/mL (≈ 13.8 µM). Also, in the data set on Vero, the IC50 is 26.5 µg/mL (≈ 83.2 µM).

For the molecule `Brc1ccc2c(c1)Sc1cc(Br)ccc1N2CCCN1CCCC1.Cl`, the MIC in data set [1] was found to be 1.45 µg/mL. The IC50 in the data set with Vero amounted to 17.1 µg/mL.

For `Brc1ccc2c(c1)Sc1cc(Br)ccc1N2CCN1CCOCC1.Cl`, the MIC in [1] is over 100 µg/mL. In addition, the IC50 in the data set on Vero was over 100 µg/mL.

`CN1CCCCC1CCN1c2c(Cl)cc(Cl)cc2Sc2cc(Cl)cc(Cl)c21.Cl` (stereo not drawn): the MIC90 came to 3.1 µg/mL in data set [9], 2.89 µg/mL in data set [10] and 3.1 µg/mL in data set [13]. Also, in data set [1], the MIC turned out to be 1.55 µg/mL. Further, the IC50 in the data set with Vero amounted to 26.9 µg/mL; in data set [11], 3.6 µg/mL; in [12], 4.5 µg/mL. In addition, the inhibition in data set [2] amounted to 92.4%; in data set [3], 74.2%. Besides, the Ki at D(2) dopamine receptor amounted to 639 nM; in data set [4] it was 1240 nM; in data set [5], 387 nM; in [6], 1000 nM. In addition, the Activity result in the data set on HepG2 [14] is on record as “Non-Toxic”.

Turning to `CO[C@H]1/C=C/O[C@@]2(C)Oc3c(C)c(O)c4c(O)c(c(/C=N/N5CCN(C)CC5)c(O)c4c3C2=O)NC(=O)/C(C)=C\C=C\[C@H](C)[C@H](O)[C@@H](C)[C@@H](O)[C@@H](C)[C@H](OC(C)=O)[C@@H]1C` [RIFAMPIN], the MIC90 is 0.06 µg/mL (≈ 0.0729 µM) in [9], over 128 µg/mL in data set [10] and 0.06 µg/mL (≈ 0.0729 µM) in data set [13]. For the same molecule, in data set [1], the MIC is 0.01 µg/mL (≈ 0.0122 µM).

In the case of `CN1CCCCC1CCN1c2ccccc2Sc2cc(Cl)ccc21.Cl` (stereo not drawn), in data set [1], the MIC came to 5.48 µg/mL. Moreover, in the data set on Vero, the IC50 came to 30.7 µg/mL. Besides, the inhibition in data set [2] amounted to 47.5%; in data set [3], 12.5%.

Consider `CN(C)CCCN1c2ccc(Br)cc2Sc2cc(Br)cc(F)c21.Cl`, for which the MIC in [1] came out at 5.7 µg/mL. For the same molecule, in the data set on Vero, the IC50 worked out at 34.7 µg/mL.

`CN1CCCCC1CCN1c2ccc(Cl)cc2Sc2cc(Cl)ccc21.Cl` (stereo not drawn): the MIC in data set [1] is 2.4 µg/mL. The IC50 was 17.9 µg/mL in the data set with Vero and 6.5 µg/mL in [11]. The inhibition amounted to 85.4% in [2] and 59.3% in [3].

For `CN(C)CCCN1c2ccc(Cl)cc2Sc2cc(Cl)ccc21.Cl`, the MIC in data set [1] came to 2.51 µg/mL. Also, the IC50 in the data set with Vero stood at 16.7 µg/mL.

Regarding `N=c1sc(-c2ccc(F)cc2)nn1CC(=O)N1c2ccc(Br)cc2Sc2cc(Br)ccc21`, the MIC in data set [1] was over 50 µg/mL.

In the case of `Brc1ccc2c(c1)Sc1cc(Br)ccc1N2Cc1ccccn1.Cl`, the MIC in data set [1] is over 100 µg/mL. Further, the concentration for half-maximal inhibition (IC50) with Vero is over 100 µg/mL.

For `CN(C)CCCN1c2ccccc2Sc2cc(Cl)ccc21.Cl`, the MIC in data set [1] turned out to be 6.59 µg/mL. Also, the IC50 in the data set on Vero came out at 35.8 µg/mL.

`CSc1ccc2c(c1)N(CCC1CCCCN1C)c1ccccc1S2` (stereo not drawn) [THIORIDAZINE]: the MIC90 in [10] is 5.29 µg/mL (≈ 14.3 µM). In [1], the MIC worked out at 2.4 µg/mL (≈ 6.48 µM). Also, the IC50 in the data set on Vero worked out at 17.8 µg/mL (≈ 48 µM). For the same molecule, the figures for the inhibitory constant (Ki) in data set [5] and in [6] were 71 nM and 181 nM, respectively.

In general, IC50 refers to the concentration at which inhibition is half-maximal. The term inhibition denotes the share of the control response that was lost under treatment. As usually defined, the Ki is the equilibrium dissociation constant of an inhibitor or competing ligand from its target. Broadly, the MIC90 is an inhibitory concentration at the 90% level, which refers to growth in some studies and to a panel of isolates in others.
